Assay results as given in US7435837B2, “Dihydrobenzofuranyl alkanamine derivatives and methods for using same” (Wyeth, priority 2003, dated 2008).
Read-outs that look alike come from different tables or passages of the source.

Experiments:
[1] = molecular target: T1, human 5-HT2C receptor (Homo sapiens, UniProt P28335); assay: 5-HT2C receptor-stimulated calcium mobilization (FLIPR) in CHO cells; format: cell-based; details: for Emax: CHO, percentage of the response observed with a maximally effective concentration of 5-HT, read-out: 5-HT2C Function Emax (%); for EC50: calcium mobilization, CHO cells stably expressing human 5-HT2C, read-out: 5-HT2C Function EC50;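 for all read-outs here: Fluo-3-AM fluorescence read on FLIPR every 1 s, agonist added after 10 baseline reads, response taken as peak minus lowest raw fluorescence count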
T1 sequence (P28335 33-458): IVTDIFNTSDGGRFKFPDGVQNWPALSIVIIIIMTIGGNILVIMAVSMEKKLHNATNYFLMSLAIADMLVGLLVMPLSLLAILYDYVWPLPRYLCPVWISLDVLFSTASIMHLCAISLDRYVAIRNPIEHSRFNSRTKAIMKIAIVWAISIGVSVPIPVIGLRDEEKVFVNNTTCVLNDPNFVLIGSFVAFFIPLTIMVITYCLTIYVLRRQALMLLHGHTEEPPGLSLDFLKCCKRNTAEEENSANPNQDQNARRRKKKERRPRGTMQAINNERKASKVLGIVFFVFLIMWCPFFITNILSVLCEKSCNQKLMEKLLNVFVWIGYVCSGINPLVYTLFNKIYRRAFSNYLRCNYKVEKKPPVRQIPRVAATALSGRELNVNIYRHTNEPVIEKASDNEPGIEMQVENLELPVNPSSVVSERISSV

[2] = molecular target: T2, human 5-hydroxytryptamine-2C (h5-HT2C) receptor (Homo sapiens, UniProt P28335); assay: [125I]DOI binding to membranes of CHO cells expressing the human 5-HT2C receptor; details: for Ki: [125I]DOI radioligand
T2 construct: expressed in transfected cells; host or cells: CHO (Chinese Hamster Ovary) cells; membranes
T2 sequence (P28335 33-458): T1 sequence (P28335 33-458)

[3] = CHO cell membranes, room temperature 60 min, read-out: 5-HT2C Affinity Ki

| SMILES | Ki [2, 3] [nM] | further results |
| --- | --- | --- |
| NCC1Cc2c(cccc2-c2ccccc2)O1 (racemic) [Example 1, (±)-1-(4-phenyl-2,3-dihydro-1-benzofuran-2-yl)methanamine] | 43 | Emax [1]: 90%; EC50 [1]: 926 nM |
| Cc1ccccc1-c1cccc2c1CC(CN)O2 (racemic) [Example 4, (±)-1-[4-(2-methylphenyl)-2,3-dihydro-1-benzofuran-2-yl]methanamine] | 26 | Emax [1]: 100%; EC50 [1]: 562 nM |
| NCC1Cc2cccc(C3CCCC3)c2O1 (racemic) [Example 8, (±)-(7-cyclopentyl-2,3-dihydro-1-benzofuran-2-yl)methylamine] | 9 | Emax [1]: 85%; EC50 [1]: 188 nM |
| CC(C)c1cccc2c1OC(CN)C2 (racemic) [Example 18, (±)-(7-isopropyl-2,3-dihydro-1-benzofuran-2-yl)methylamine] | 5 | Emax [1]: 100%; EC50 [1]: 9.6 nM |
| Cc1c(Cl)cc(C(C)C)c2c1CC(CN)O2 (racemic) [Example 21, (±)-1-(5-chloro-7-isopropyl-4-methyl-2,3-dihydro-1-benzofuran-2-yl)methanamine] | 9 | Emax [1]: 85%; EC50 [1]: 86 nM |
| CC(C)(C)c1cc(Cl)cc2c1OC(CN)C2 (racemic) [Example 27, (±)-1-(7-tert-butyl-5-chloro-2,3-dihydro-1-benzofuran-2-yl)methanamine] | 39 | Emax [1]: 80%; EC50 [1]: 2020 nM |
| NCC1Cc2cccc(-c3ccsc3)c2O1 (racemic) [Example 44, (±)-1-(7-thien-3-yl-2,3-dihydro-1-benzofuran-2-yl)methanamine] | 3 | Emax [1]: 100%; EC50 [1]: 7 nM |
| NCCC1Cc2ccc(Cl)c(-c3ccccc3Cl)c2O1 (racemic) [Example 552, (±)-{2-[6-chloro-7-(2-chlorophenyl)-2,3-dihydro-1 benzofuran-2-yl]ethyl}amine] | 0.3 |  |
| NCC1Cc2cccc(-c3ccccc3F)c2O1 (single isomer, unassigned; (+)) [Example 51, (+)-1-[7-(2-fluorophenyl)-2,3-dihydro-1-benzofuran-2-yl]methanamine] | 1 |  |
| NCC1Cc2cc(Cl)cc(-c3ccsc3)c2O1 (single isomer, unassigned; (+)) [Example 92, (+)-(5-chloro-7-thien-3-yl-2,3-dihydro-1-benzofuran-2-yl)methylamine] | 62 |  |
| COc1cc2c(c(C(C)(C)C)c1)OC(CN)C2 (single isomer, unassigned; (+)) [Example 116, (+)-1-(7-tert-butyl-5-methoxy-2,3-dihydro-1-benzofuran-2-yl)methanamine] | 527 |  |
| NCC1Cc2c(cccc2-c2ccccc2C(F)(F)F)O1 (single isomer, unassigned; (+)) [Example 124, (+)-1-{4-[2-(trifluoromethyl)phenyl]-2,3-dihydro-1-benzofuran-2-yl}methanamine] | 53 |  |
| NCC1Cc2cccc(-c3cccc(C(F)(F)F)c3)c2O1 (single isomer, unassigned; (+)) [Example 136, (+)-1-{7-[3-(trifluoromethyl)phenyl]-2,3-dihydro-1-benzofuran-2-yl}methanamine] | 124 |  |
| COc1ccc(-c2cccc3c2OC(CN)C3)c(OC)c1 (single isomer, unassigned; (+)) [Example 145, (+)-1-[7-(2,4-dimethoxyphenyl)-2,3-dihydro-1-benzofuran-2-yl]methanamine] | 91 |  |
| COc1cccc(-c2cccc3c2OC(CN)C3)c1OC (single isomer, unassigned; (+)) [Example 157] | 58 |  |
| Cc1cc2c(c(-c3c(Cl)cccc3Cl)c1)OC(CN)C2 (single isomer, unassigned; (+)) [Example 304, (+)-{[7-(2,6-dichlorophenyl)-5-methyl-2,3-dihydro-1-benzofuran-2-yl]methyl}amine] | 1.7 |  |
| Cc1ccccc1-c1c(F)ccc2c1OC(CN)C2 (single isomer, unassigned; (+)) [Example 396, (+)-{[6-fluoro-7-(2-methylphenyl)-2,3-dihydro-1-benzofuran-2-yl]methyl}amine] | 0.3 |  |
| NCC1Cc2c(cccc2-c2ccccc2)O1 (single isomer, unassigned; (-)) [Example 3, (−)-1-(4-phenyl-2,3-dihydro-1-benzofuran-2-yl)methanamine] | 204 |  |
| Cc1ccccc1-c1cccc2c1CC(CN)O2 (single isomer, unassigned; (-)) [Example 6, (−)-1-[4-(2-methylphenyl)-2,3-dihydro-1-benzofuran-2-yl]methanamine] | 84 |  |

| SMILES | Ki [2, 3] [nM] | further results |
| --- | --- | --- |
| NCC1Cc2cccc(-c3ccsc3)c2O1 (single isomer, unassigned; (-)) [Example 46, (−)-1-(7-thien-3-yl-2,3-dihydro-1-benzofuran-2-yl)methanamine] | 54 |  |
| NCC1Cc2cccc(-c3ccccc3F)c2O1 (single isomer, unassigned; (-)) [Example 52, (−)-1-[7-(2-fluorophenyl)-2,3-dihydro-1-benzofuran-2-yl]methanamine] | 13 |  |
| CC(C)c1ccccc1-c1cccc2c1OC(CN)C2 (single isomer, unassigned; (-)) [Example 63, (−)-[7-(2-isopropylphenyl)-2,3-dihydro-1-benzofuran-2-yl]methylamine] | 52 |  |
| NCC1Cc2cccc(-c3ccc(F)cc3)c2O1 (single isomer, unassigned; (-)) [Example 75, (−)-1-[7-(4-fluorophenyl)-2,3-dihydro-1-benzofuran-2-yl]methanamine] | 103 |  |
| CNCC1Cc2cc(Cl)cc(-c3ccsc3)c2O1 (single isomer, unassigned; (-)) [Example 94, (−)-N-[(5-chloro-7-thien-3-yl-2,3-dihydro-1-benzofuran-2-yl)methyl]-N-methylamine] | 176 |  |
| COc1cc2c(c(C(C)(C)C)c1)OC(CN)C2 (single isomer, unassigned; (-)) [Example 115, (−)-1-(7-tert-butyl-5-methoxy-2,3-dihydro-1-benzofuran-2-yl)methanamine] | 79 |  |
| NCC1Cc2c(cccc2-c2ccccc2C(F)(F)F)O1 (single isomer, unassigned; (-)) [Example 123, (−)-1-{4-[2-(trifluoromethyl)phenyl]-2,3-dihydro-1-benzofuran-2-yl}methanamine] | 207 |  |
| Cc1cccc(C)c1-c1cccc2c1CC(CN)O2 (single isomer, unassigned; (-)) [Example 127, (−)-1-[4-(2,6-dimethylphenyl)-2,3-dihydro-1-benzofuran-2-yl]methanamine] | 20 |  |
| COc1cccc(-c2cccc3c2OC(CN)C3)c1 (single isomer, unassigned; (-)) [Example 134, (−)-1-[7-(3-methoxyphenyl)-2,3-dihydro-1-benzofuran-2-yl]methanamine] | 483 |  |
| NCC1Cc2cccc(-c3cccc(C(F)(F)F)c3)c2O1 (single isomer, unassigned; (-)) [Example 135, (−)-1-{7-[3-(trifluoromethyl)phenyl]-2,3-dihydro-1-benzofuran-2-yl}methanamine] | 131 |  |
| NCC1Cc2cccc(-c3cccnc3)c2O1 (single isomer, unassigned; (-)) [Example 172, (−)-{[7-pyridin-3-yl-2,3-dihydro-1-benzofuran-2-yl]methyl}amine] | 185 |  |
| Cc1cc2c(c(-c3c(Cl)cccc3Cl)c1)OC(CN)C2 (single isomer, unassigned; (-)) [Example 303, (−)-{[7-(2,6-dichlorophenyl)-5-methyl-2,3-dihydro-1-benzofuran-2-yl]methyl}amine] | 0.2 |  |
| Cc1ccccc1-c1c(F)ccc2c1OC(CN)C2 (single isomer, unassigned; (-)) [Example 397, (−)-{[6-fluoro-7-(2-methylphenyl)-2,3-dihydro-1-benzofuran-2-yl]methyl}amine] | 1.6 |  |
| CCNC[C@H]1Cc2cc(F)cc(-c3c(Cl)cccc3Cl)c2O1 [Example 546, (R)-[7-(2,6-dichloro-phenyl)-5-fluoro-2,3-dihydro-benzofuran-2-ylmethyl]ethylamine] | 2.3 |  |
| CN(C)C[C@H]1Cc2cc(F)cc(-c3c(Cl)cccc3Cl)c2O1 [Example 547, (R)-[7-(2,6-dichloro-phenyl)-5-Fluoro-2,3-dihydro-benzofuran-2-ylmethyl]dimethylamine] | 1.8 |  |
| Cc1ccc(Cl)cc1-c1cc(F)cc2c1O[C@@H](CN)C2 [Example 548, {[(2R)-7-(5-chloro-2-methylphenyl)-5-fluoro-2,3-dihydro-1-benzofuran-2-yl]methyl}amine] | 2.3 |  |
| Cc1cc(Cl)ccc1-c1cc(F)cc2c1O[C@@H](CN)C2 [Example 549, {[(2R)-7-(4-chloro-2-methylphenyl)-5-fluoro-2,3-dihydro-1-benzofuran-2-yl]methyl}amine] | 3.1 |  |
| CSc1ccc2c(c1)C(N1CCN(C)CC1)Cc1ccccc1S2 (stereo not shown) [Methiothepin, reference compound] |  | Ki ([2]; reference compounds, 95% confidence interval in parentheses, read-out: Ki): 4.6 nM |
| COc1cc(CC(C)N)c(OC)cc1I (stereo not shown) [[^125I] DOI, reference compound] |  | Kd ([2]; saturation binding with increasing concentrations of [125I] DOI, read-out: dissociation constant, KD): 0.4 nM |
